Results as given in ChEMBL document CHEMBL2434821, “New phenstatin-fatty acid conjugates: synthesis and evaluation” (Bioorg Med Chem Lett, 2013).
Activity calls are given as the source filed them. The rule behind the calls is not given here.

Assays:
[1] = Cytotoxicity against human KB-3-1 cells after 72 hrs by MTT assay; assay type: functional, cell-based; conditions: KB 3-1, 72 h
HEK293 [2] = test: Cytotoxicity against human HEK293 cells after 72 hrs by MTT assay; assay type: functional, cell-based; conditions: HEK293, 72 h
[3] = Cytotoxicity against human H460 cells after 72 hrs by MTT assay; assay type: functional, cell-based; conditions: NCI-H460, 72 h
MCF7 [4] = test: Cytotoxicity against human MCF7 cells after 72 hrs by MTT assay; assay type: functional, cell-based; conditions: MCF7, 72 h
[5] = Cytotoxicity against human H460 cells assessed as inhibition of cell survival at 0.5 uM after 72 hrs by MTT assay relative to control; assay type: functional; conditions: NCI-H460, 72 h
HEK293 [6] = test: Cytotoxicity against human HEK293 cells assessed as inhibition of cell survival at 0.5 uM after 72 hrs by MTT assay relative to control; assay type: functional; conditions: HEK293, 72 h
MCF7 [7] = test: Cytotoxicity against human MCF7 cells assessed as inhibition of cell survival at 0.5 uM after 72 hrs by MTT assay relative to control; assay type: functional; conditions: MCF7, 72 h
MCF7 [8] = test: Cytotoxicity against human MCF7 cells assessed as inhibition of cell survival at 5 to 15 uM after 72 hrs by MTT assay relative to control; assay type: functional, cell-based
HEK293 [9] = test: Cytotoxicity against human HEK293 cells assessed as inhibition of cell survival at 5 to 15 uM after 72 hrs by MTT assay relative to control; assay type: functional, cell-based
KB 3-1 = test: Cytotoxicity against human KB-3-1 cells assessed as inhibition of cell survival at 5 to 15 uM after 72 hrs by MTT assay relative to control; assay type: functional, cell-based
NCI-H460 = test: Cytotoxicity against human H460 cells assessed as inhibition of cell survival at 5 to 15 uM after 72 hrs by MTT assay relative to control; assay type: functional, cell-based

| Structure (SMILES) | IC50 [1] [nM] | IC50 (HEK293 [2]) [nM] | IC50 [3] [nM] | IC50 (MCF7 [4]) [nM] | inhibition at 0.5 µM [5] [%] | inhibition at 0.5 µM (HEK293 [6]) [%] | inhibition at 0.5 µM (MCF7 [7]) [%] | inhibition (MCF7 [8]) | inhibition (HEK293 [9]) | inhibition (KB 3-1) | inhibition (NCI-H460) |
| --- | --- | --- | --- | --- | --- | --- | --- | --- | --- | --- | --- |
| CCCCCCCC/C=C\CCCCCCCC(=O)Oc1cc(C(=O)c2cc(OC)c(OC)c(OC)c2)ccc1OC | 786 | 950 | 909 | 943 | – | – | – | – | – | – | – |
| CCCCCCCCCCCCCCCCCC(=O)Oc1ccc(C(=O)c2cc(OC)c(OC)c(OC)c2)cc1OC | 16900 | 15600 | 17600 | 26900 | – | – | – | – | – | – | – |
| CCCCCCCCCCCCCCCCCC(=O)Oc1cc(C(=O)c2cc(OC)c(OC)c(OC)c2)ccc1OC | 2780 | 2640 | 4700 | 3350 | – | – | – | – | – | – | – |
| COc1cc(C(=O)c2cc(OC)c(OC)c(OC)c2)ccc1O [ISOPHENSTATIN] | 146 | 196 | 188 | 199 | – | – | – | – | – | – | – |
| CCCCCCCC/C=C\CCCCCCCC(=O)Oc1ccc(C(=O)c2cc(OC)c(OC)c(OC)c2)cc1OC | 1720 | 2360 | 2200 | 2170 | – | – | – | – | – | – | – |
| COc1ccc(C(=O)c2cc(OC)c(OC)c(OC)c2)cc1O [PHENSTATIN] | 15 | 23 | 20 | 19 | – | – | – | – | – | – | – |
| CCCCC/C=C\C/C=C\CCCCCCCC(=O)Oc1cc(C(=O)c2cc(OC)c(OC)c(OC)c2)ccc1OC | 163 | 210 | 176 | 181 | 20 | 20 | 20 | – | – | – | – |
| COc1cc2c(c(OC)c1OC)-c1ccc(OC)c(=O)cc1[C@@H](NC(C)=O)CC2 [COLCHICINE] | 18 | 9 | – | 19 | – | – | – | – | – | – | – |
| CCCCC/C=C\C/C=C\CCCCCCCC(=O)Oc1ccc(C(=O)c2cc(OC)c(OC)c(OC)c2)cc1OC | 547 | 903 | 867 | 745 | – | – | – | Active | Active | Active | Active |
